Measured values reported in patent publication US7833532B2, “Immunogenic lipopeptides comprising T-helper and cytotoxic T lymphocyte (CTL) epitopes” (The Council of The Queensland Institute of Medical Research, priority 2002, dated 2010).

System: D1 cells
Assay: Maturation of D1 dendritic cells (surface MHC class II, flow cytometry)
Format: cell-based, BALB/c mouse
Conditions: overnight incubation, 0.45 nmoles/mL; […]

## ALNNRFQIKGVELKSKTYQRTRALV [[Th]-Lys-[CTL]]
  maturation of D1 cells (percentage expressing high levels of surface MHC class II): ≤ 26%
